Data as given in patent US20110160121A1, “UNACYLATED GHRELIN AND ANALOGS AS THERAPEUTIC AGENTS FOR VASCULAR REMODELING IN DIABETIC PATIENTS AND TREATMENT OF CARDIOVASCULAR DISEASE” (ALIZE PHARMA SAS, priority 2008, published 2011).
Where no end group is shown, it is not given here.

Tested on: CAC membranes
Assay: Saturation binding experiment on CAC membranes (Scatchard analysis)
Design: species or system human
[1] = Scatchard analysis, CAC membranes

**Q.** Which results are given for “1-NH2Gly-Ser-Ser-Phe-Leu-Ser-Pro-Glu-His-Gln-Arg-Val-Gln-Gln-Arg-Lys-Glu-Ser-Lys-Lys-Pro-Pro-Ala-Lys-Leu-Gln-Pro-Arg-28 (H-GSSFLSPEHQRVQQRKESKKPPAKLQPR; ends and bridges not checked; listed as Homo sapiens) [UAG]”?
**A.** radioligand concentration at maximum specific binding (saturable) (CAC membranes, FIG. 5B): 2 nM; Bmax [1]: 10.7 fmol/mg membrane protein; Hill coefficient [1]: ~1; Kd (Scatchard analysis, single class of binding sites on CAC): 0.48 nM
